Laboratory results reported in article PMC10664828, “Tetrazole and acylsulfonamide bioisosteric replacements of the carboxylic acid in a dual MCL-1/BCL-xL inhibitor are tolerated” (RSC Advances, 2023).
Read-outs that look alike come from different tables or passages of the source.

Tests used:
HL60 cells = test: CellTiter-Blue cell viability assay; assay type: cell-based; conditions: Homo sapiens
Description: Cell viability studies were conducted using the CellTiter-Blue® (Promega, Madison, WI) assay. Briefly, HL60 cells, were seeded in a 96-well plate and maintained at 37 °C with 5% CO2 for 24 h. The cells were then exposed to test compounds at 11 concentrations ranging from 0 to 20 mM. After 72 h, cell viabilities were then determined according to the manufacturer's instructions.

MCL-1 [1] = molecular target: T1, MCL-1 (Homo sapiens, UniProt Q07820); test: Fluorescence polarization competition assay (FPCA) with FITC-Bak, MCL-1; assay type: binding; conditions: for MCL-1 inhibition in FPCA (in words): cell-free MCL-1 binding assay; for fold better MCL-1 affinity than parent compound 1: relative to compound 1
T1 construct: His6-MBP (cleaved yes); made in house; host or cells: E. coli
T1 sequence (Q07820 172-327): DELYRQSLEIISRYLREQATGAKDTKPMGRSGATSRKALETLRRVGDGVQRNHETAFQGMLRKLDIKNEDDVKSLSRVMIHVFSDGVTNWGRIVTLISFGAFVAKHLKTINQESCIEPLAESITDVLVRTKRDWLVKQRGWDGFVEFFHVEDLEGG
Description: The tagged protein was initially purified from the crude cell lysate by IMAC chromatography (GE Healthcare Life Sciences), and after dialysis to remove the imidazole the affinity tag was cleaved using PreScission Protease (GE Healthcare Life Sciences). A Sephacryl S-200 size exclusion column was used as a final purification step before the protein was concentrated with a 10 000 MWCO centrifugal filter concentrator (Millipore).
(§1) Fluorescence polarization experiments were conducted using a BMG PHERAstar FS multimode microplate reader equipped with two PMTs for simultaneous measurements of the perpendicular and parallel fluorescence emission. The assays were performed in black polypropylene 384-well microplate (Costar) with a final volume of […]. […] For the fluorescence polarization competition titrations, an equation derived by Nikolovska-Coleska et al.[16] was used to calculate the Ki from the IC50 data. All experiments were run in three biological replicates, each in triplicate.

[2] = cited from earlier work
BCL-xL [3] = molecular target: T2, BCL-xL (Homo sapiens, UniProt Q07817); conditions: Table 2; FPCA; read-out: K i (BCL-xL); cited from earlier work
T2 construct: (or 15 nM Bcl-xL^2-212 (R&D Systems)); b80 says SinBiological
T2 sequence (Q07817 2-212): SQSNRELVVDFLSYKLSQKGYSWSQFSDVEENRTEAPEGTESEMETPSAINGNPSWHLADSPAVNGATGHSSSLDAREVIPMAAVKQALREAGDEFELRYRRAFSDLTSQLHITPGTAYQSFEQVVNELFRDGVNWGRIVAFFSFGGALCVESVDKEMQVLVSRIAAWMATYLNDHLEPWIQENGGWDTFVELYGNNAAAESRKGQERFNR

MCL-1 [4] = molecular target: T1, MCL-1; conditions: Table 2; FPCA; read-out: K i (MCL-1); cited from earlier work
BCL-xL [5] = molecular target: T2, BCL-xL; test: Fluorescence polarization competition assay (FPCA) with FITC-Bak, BCL-xL; assay type: binding; conditions: for Ki: read-out: K i (BCL-xL)
Description: BCl-xL was purchased from SinBiological.
as §1

[6] = HL-60, 72 h, 10% FBS, 72 h, read-out: HL60 IC50
[7] = HL-60, 72 h, […] FBS, 72 h, read-out: HL60 IC50
[8] = Table 1, FPCA, 100 nM Mcl-1 172-327, 10 nM FITC-Bak, read-out: K i
[9] = Table 2, FPCA, read-out: K i (MCL-1)

| Structure (SMILES) | IC50 (HL60 cells; [6]) | IC50 (HL60 cells; [7]) | Ki (MCL-1 [1]; read-out: K i) | Ki (BCL-xL [5]) | Ki (MCL-1 [1]; [9]) | further results |
| --- | --- | --- | --- | --- | --- | --- |
| CC(C)CN(c1ccc(C(=O)O)c(O)c1)S(=O)(=O)c1ccc(Oc2ccccc2)cc1 [Compound 1] | > 120 µM | 18.5 µM | – | – | – | – |
| COC(=O)c1ccc(N(CC(C)C)S(=O)(=O)c2ccc(Oc3ccccc3)cc2)cc1O [Compound 2, Methyl 2-hydroxy-4-(N-isobutyl-4-phenoxyphenylsulfonamido)benzoate] | 76.4 µM | 68.1 µM | > 500 µM | – | – | MCL-1 inhibition in FPCA (in words) (MCL-1 [1]): inactive |
| CC(=O)OCOC(=O)c1ccc(N(CC(C)C)S(=O)(=O)c2ccc(Oc3ccccc3)cc2)cc1O [Compound 3, Acetoxymethyl 2-hydroxy-4-(N-isobutyl-4-phenoxyphenylsulfonamido)benzoate] | > 120 µM | 46.4 µM | > 500 µM | – | – | MCL-1 inhibition in FPCA (in words) (MCL-1 [1]): inactive |
| CC(C)CN(c1ccc(C(=O)NO)c(O)c1)S(=O)(=O)c1ccc(Oc2ccccc2)cc1 [Compound 4, N,2-Dihydroxy-4-(N-isobutyl-4-phenoxyphenylsulfonamido)benzamide] | – | – | – | – | – | Ki (MCL-1 [1]; [8]): 70.6 ± 5.8 µM; pKa ([2]; value of the functional group): 8–9 |
| CC(C)CN(c1ccc(-c2nn[nH]n2)cc1)S(=O)(=O)c1ccc(Oc2ccccc2)cc1 [Compound 5, N-(4-(2H-Tetrazol-5-yl)phenyl)-N-isobutyl-4-phenoxybenzenesulfonamide] | > 120 µM | 15.7 µM | – | – | – | Ki (MCL-1 [1]; [8]): 3.29 ± 0.26 µM; fold better MCL-1 affinity than parent compound 1 (MCL-1 [1]): ≥ 2 fold; pKa ([2]; value of the functional group): 4–5 |
| CC(C)CN(c1ccc(-c2cc(=O)[nH]o2)cc1)S(=O)(=O)c1ccc(Oc2ccccc2)cc1 [Compound 6, N-Isobutyl-N-(4-(3-oxo-2,3-dihydroisoxazol-5-yl)phenyl)-4-phenoxybenzenesulfonamide] | – | – | > 500 µM | – | – | MCL-1 inhibition in FPCA (in words) (MCL-1 [1]): no inhibition; pKa ([2]; value of the functional group): 4–5 |
| Cc1cc(Oc2ccc(S(=O)(=O)N(CC(C)C)c3ccc(O)c(C(=O)O)c3)cc2)cc(C)c1Cl [Compound 6e-OH-5, reference compound] | > 120 µM | 9.82 µM | – | – | – | Ki (BCL-xL [3]): 2.19 ± 0.19 µM; Ki (MCL-1 [4]): 0.778 ± 0.041 µM |
| CS(=O)(=O)NC(=O)c1ccc(N(Cc2ccccc2)S(=O)(=O)c2ccc(Oc3ccccc3)cc2)cc1O [Compound 7a, 4-(N-Benzyl-4-phenoxyphenylsulfonamido)-2-hydroxy-N-(methylsulfonyl)benzamide] | – | – | – | 7.22 ± 1.07 µM | 2.94 ± 0.35 µM | fold weaker BCL-xL inhibition than parent compound 17cd (BCL-xL [5]; relative to 17cd): about 4 fold; Ki (MCL-1 [1]; [8]): 2.94 ± 0.35 µM; fold better MCL-1 affinity than parent compound 1 (MCL-1 [1]): ≥ 2 fold |
| O=C(NS(=O)(=O)c1ccccc1)c1ccc(N(Cc2ccccc2)S(=O)(=O)c2ccc(Oc3ccccc3)cc2)cc1O [Compound 7b, 4-(N-Benzyl-4-phenoxyphenylsulfonamido)-2-hydroxy-N-(phenylsulfonyl)benzamide] | – | – | 1.95 ± 0.22 µM | 2.34 ± 0.22 µM | – | fold improvement in BCL-xL inhibitory activity (BCL-xL [5]; relative to 7a): 3 fold; fold better MCL-1 affinity than parent compound 1 (MCL-1 [1]): ≥ 2 fold |
| O=C(NS(=O)(=O)c1ccc(NCC2CCOCC2)c([N+](=O)[O-])c1)c1ccc(N(Cc2ccccc2)S(=O)(=O)c2ccc(Oc3ccccc3)cc2)cc1O [Compound 7c, 4-(N-Benzyl-4-phenoxyphenylsulfonamido)-2-hydroxy-N-((3-nitro-4-(((tetrahydro-2H-pyran-4-yl)methyl)amino)phenyl)sulfonyl)benzamide] | – | – | – | 1.05 ± 0.14 µM | 1.23 ± 0.15 µM | – |
| Cc1cc(Oc2ccc(S(=O)(=O)N(Cc3ccccc3)c3ccc(C(=O)NS(=O)(=O)c4ccc(NCC5CCOCC5)c([N+](=O)[O-])c4)c(O)c3)cc2)cc(C)c1Cl [Compound 7d, 4-(N-Benzyl-4-(4-chloro-3,5-dimethylphenoxy)phenylsulfonamido)-2-hydroxy-N-((3-nitro-4-(((tetrahydro-2H-pyran-4-yl)methyl)amino)phenyl)sulfonyl)benzamide] | > 120 µM | 7.45 µM | – | 1.82 ± 0.18 µM | 0.8 ± 0.07 µM | – |
| CC(C)CN(c1ccc(C#N)c(O)c1)S(=O)(=O)c1ccc(Oc2ccccc2)cc1 [Compound 8, N-(4-Cyano-3-hydroxyphenyl)-N-isobutyl-4-phenoxybenzenesulfonamide] | – | – | > 500 µM | – | – | MCL-1 inhibition in FPCA (in words) (MCL-1 [1]): no inhibition; pKa ([2]; cyanophenol, no reference given): about 7 |
| Cc1cc(Oc2ccc(S(=O)(=O)N(Cc3ccccc3)c3ccc(C(=O)O)c(O)c3)cc2)cc(C)c1Cl [Compound 17cd, reference compound] | 53.2 µM | 5.79 µM | – | – | – | IC50 (HL60 cells; HL-60, text of introduction, read-out: IC50, viability of human leukemia HL60 cells): 18.5 µM |
| Cc1cc(Oc2ccc(S(=O)(=O)N(Cc3ccccc3)c3ccc(O)c(C(=O)O)c3)cc2)cc(C)c1Cl [Compound 27, 5-(N-Benzyl-4-(4-chloro-3,5-dimethylphenoxy)phenylsulfonamido)-2-hydroxybenzoic acid] | – | – | – | – | 1.4 ± 0.47 µM | Ki (BCL-xL [5]; Table 2, FPCA, 15 nM Bcl-xL 2-212, 10 nM FITC-Bak): 1.82 ± 0.23 µM |
| Cc1cc(Oc2ccc(S(=O)(=O)N(Cc3ccccc3)c3ccc(O)c(C(=O)NS(=O)(=O)c4ccc(NCC5CCOCC5)c([N+](=O)[O-])c4)c3)cc2)cc(C)c1Cl [Compound 29, 5-(N-Benzyl-4-(4-chloro-3,5-dimethylphenoxy)phenylsulfonamido)-2-hydroxy-N-((3-nitro-4-(((tetrahydro-2H-pyran-4-yl)methyl)amino)phenyl)sulfonyl)benzamide] | – | – | – | 1.54 ± 0.23 µM | 1.01 ± 0.08 µM | – |
